Measurements published in patent US8372854B2, “Pyrrolo[2,3-D]pyrimidine compounds” (Pfizer Inc., priority 2009, dated 2013).

What was measured:
Assay type in all cases: biochemical
JAK3 = biological target: T1, JAK3 (Homo sapiens, UniProt P52333); experiment: JAK enzymatic assay (peptide mobility shift), JAK3; details: recombinant JAK3 1 nM, ATP 4 μM, 1 μM JAKtide peptide, 90 minutes
T1 construct: purchased Invitrogen Corporation, Madison, Wis; PV3855
T1 sequence (P52333 1-1124): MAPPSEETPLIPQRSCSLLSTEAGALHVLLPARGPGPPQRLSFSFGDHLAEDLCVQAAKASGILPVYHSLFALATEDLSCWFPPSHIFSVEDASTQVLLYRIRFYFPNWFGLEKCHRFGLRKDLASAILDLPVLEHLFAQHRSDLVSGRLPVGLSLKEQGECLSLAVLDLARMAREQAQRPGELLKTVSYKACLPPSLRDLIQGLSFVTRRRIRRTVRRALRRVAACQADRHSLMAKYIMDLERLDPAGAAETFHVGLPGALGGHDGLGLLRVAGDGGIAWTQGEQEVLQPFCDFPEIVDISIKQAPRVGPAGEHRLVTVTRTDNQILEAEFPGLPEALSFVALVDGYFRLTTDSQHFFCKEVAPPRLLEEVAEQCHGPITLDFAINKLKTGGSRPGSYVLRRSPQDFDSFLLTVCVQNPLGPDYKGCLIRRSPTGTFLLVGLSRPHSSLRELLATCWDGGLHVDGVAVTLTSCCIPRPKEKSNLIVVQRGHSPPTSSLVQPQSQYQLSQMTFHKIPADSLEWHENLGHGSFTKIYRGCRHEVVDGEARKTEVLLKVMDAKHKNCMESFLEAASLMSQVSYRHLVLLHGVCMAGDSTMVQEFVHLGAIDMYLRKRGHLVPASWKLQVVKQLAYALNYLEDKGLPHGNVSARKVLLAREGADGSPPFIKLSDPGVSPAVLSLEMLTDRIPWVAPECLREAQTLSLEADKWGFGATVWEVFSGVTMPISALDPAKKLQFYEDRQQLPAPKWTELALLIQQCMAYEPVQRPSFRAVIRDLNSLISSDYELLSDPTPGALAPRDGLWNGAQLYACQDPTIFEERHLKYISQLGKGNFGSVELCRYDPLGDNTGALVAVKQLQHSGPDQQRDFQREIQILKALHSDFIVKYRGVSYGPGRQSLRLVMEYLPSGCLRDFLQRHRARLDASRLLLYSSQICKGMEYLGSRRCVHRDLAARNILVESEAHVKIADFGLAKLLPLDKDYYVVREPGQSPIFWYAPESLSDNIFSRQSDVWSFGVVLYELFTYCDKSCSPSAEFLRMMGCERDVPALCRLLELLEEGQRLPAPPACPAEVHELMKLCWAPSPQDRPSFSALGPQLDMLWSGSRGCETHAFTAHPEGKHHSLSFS

JAK2 = biological target: T2, JAK2 (Homo sapiens, UniProt O60674); experiment: JAK enzymatic assay (peptide mobility shift), JAK2; details: recombinant JAK2 2 nM, ATP 4 μM, 1 μM JAKtide peptide, 150 minutes
T2 construct: purchased Invitrogen Corporation, Madison, Wis; PV4210
T2 sequence (O60674 whole entry): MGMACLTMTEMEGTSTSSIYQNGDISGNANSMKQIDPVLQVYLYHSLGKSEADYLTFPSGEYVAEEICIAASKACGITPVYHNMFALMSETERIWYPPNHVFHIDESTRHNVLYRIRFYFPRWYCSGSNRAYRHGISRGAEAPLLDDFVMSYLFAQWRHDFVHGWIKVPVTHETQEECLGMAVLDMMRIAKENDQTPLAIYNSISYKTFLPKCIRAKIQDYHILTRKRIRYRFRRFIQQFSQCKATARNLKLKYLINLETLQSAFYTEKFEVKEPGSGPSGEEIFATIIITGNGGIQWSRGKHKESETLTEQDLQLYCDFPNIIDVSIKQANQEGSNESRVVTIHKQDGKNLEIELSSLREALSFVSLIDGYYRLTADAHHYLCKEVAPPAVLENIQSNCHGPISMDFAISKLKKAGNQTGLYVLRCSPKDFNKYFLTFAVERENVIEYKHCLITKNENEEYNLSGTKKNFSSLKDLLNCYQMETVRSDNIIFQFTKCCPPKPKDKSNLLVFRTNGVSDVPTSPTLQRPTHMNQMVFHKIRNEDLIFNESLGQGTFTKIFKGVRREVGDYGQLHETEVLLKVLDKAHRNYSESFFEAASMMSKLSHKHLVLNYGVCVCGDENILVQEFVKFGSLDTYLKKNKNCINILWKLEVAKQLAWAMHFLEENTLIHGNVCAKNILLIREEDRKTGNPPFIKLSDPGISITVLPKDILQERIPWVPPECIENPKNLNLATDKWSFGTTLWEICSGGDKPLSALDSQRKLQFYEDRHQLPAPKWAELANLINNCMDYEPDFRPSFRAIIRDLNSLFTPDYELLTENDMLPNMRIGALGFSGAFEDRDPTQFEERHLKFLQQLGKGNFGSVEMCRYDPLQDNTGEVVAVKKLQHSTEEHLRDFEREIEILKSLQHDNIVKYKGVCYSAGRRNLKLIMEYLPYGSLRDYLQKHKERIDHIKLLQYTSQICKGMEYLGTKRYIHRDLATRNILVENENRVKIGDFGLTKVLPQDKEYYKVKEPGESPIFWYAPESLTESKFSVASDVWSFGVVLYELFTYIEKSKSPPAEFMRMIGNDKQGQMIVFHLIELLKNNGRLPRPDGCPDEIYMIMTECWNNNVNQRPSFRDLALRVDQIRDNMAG
Summary of the method: (§1)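 Caliper mobility-shift assay of peptide phosphorylation (1 μM peptide) in pH 7.4 HEPES with MgCl2, BSA, Tween-20 and 2% DMSO. JAK1 used 20 nM enzyme, 40 μM ATP, IRS-1 peptide, 240 min; JAK2 used 2 nM, 4 μM ATP, JAKtide, 150 min; JAK3 used 1 nM, 4 μM ATP, JAKtide, 90 min. IC50s came from 11-point 4-parameter fits.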

JAK1 = biological target: T3, JAK1 (Homo sapiens, UniProt P23458); experiment: JAK enzymatic assay (peptide mobility shift), JAK1; details: recombinant JAK1 20 nM, ATP 40 μM, 1 μM IRS-1 peptide, 240 minutes
T3 construct: purchased Invitrogen Corporation, Madison, Wis; PV4775
T3 sequence (P23458 whole entry): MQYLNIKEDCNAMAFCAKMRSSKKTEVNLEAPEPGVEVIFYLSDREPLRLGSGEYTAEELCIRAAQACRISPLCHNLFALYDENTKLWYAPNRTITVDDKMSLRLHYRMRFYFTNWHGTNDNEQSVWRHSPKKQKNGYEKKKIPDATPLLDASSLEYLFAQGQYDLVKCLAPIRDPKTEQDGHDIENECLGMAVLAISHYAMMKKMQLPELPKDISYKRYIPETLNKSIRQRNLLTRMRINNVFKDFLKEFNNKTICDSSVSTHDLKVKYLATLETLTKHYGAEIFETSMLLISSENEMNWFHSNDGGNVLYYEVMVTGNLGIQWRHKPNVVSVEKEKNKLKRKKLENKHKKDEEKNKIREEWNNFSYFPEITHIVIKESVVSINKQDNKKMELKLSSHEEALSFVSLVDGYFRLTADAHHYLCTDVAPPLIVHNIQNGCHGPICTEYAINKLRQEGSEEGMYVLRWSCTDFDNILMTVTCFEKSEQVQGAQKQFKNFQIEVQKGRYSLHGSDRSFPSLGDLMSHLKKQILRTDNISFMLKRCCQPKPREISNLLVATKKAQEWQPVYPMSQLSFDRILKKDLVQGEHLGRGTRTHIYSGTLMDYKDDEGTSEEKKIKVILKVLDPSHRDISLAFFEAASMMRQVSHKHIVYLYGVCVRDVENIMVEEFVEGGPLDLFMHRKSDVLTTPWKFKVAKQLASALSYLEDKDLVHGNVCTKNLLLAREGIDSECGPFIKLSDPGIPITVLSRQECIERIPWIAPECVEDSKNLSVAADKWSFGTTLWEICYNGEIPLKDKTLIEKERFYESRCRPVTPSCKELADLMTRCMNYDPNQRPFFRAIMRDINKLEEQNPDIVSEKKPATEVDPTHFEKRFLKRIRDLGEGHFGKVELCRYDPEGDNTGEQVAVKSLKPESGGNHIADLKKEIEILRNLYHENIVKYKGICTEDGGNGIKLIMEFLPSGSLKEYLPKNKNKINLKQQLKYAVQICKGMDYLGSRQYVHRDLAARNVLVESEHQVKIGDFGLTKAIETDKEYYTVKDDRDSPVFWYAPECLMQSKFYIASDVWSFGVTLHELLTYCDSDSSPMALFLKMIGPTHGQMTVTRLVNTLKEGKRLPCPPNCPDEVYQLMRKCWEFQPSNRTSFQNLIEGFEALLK
Summary of the method: as §1

SMILES	IC50 (JAK3) [nM]	IC50 (JAK2) [nM]	IC50 (JAK1) [nM]
CN(c1ncnc2[nH]ccc12)[C@H]1CC[C@H](CS(=O)(=O)NCc2cccnc2)CC1 [Example 19, 1-{trans-4-[methyl(7H-pyrrolo[2,3-d]pyrimidin-4-yl)amino]cyclohexyl}-N-(pyridin-3-ylmethyl)-methanesulfonamide]	376	57.9	9.3
CN(c1ncnc2[nH]ccc12)[C@H]1CC[C@H](CS(=O)(=O)NC2(Cc3ccccc3)CCC2)CC1 [Example 44, N-(1-benzylcyclobutyl)-1-{trans-4-[methyl(7H-pyrrolo-[2,3-d]pyrimidin-4-yl)amino]-cyclohexyl}methane-sulfonamide]	641	112	15.1
CN(c1ncnc2[nH]ccc12)[C@H]1CC[C@H](CS(=O)(=O)NCCc2cccc(Cl)c2)CC1 [Example 36, N-[2-(3-chlorophenyl)ethyl]-1-{trans-4-[methyl(7H-pyrrolo[2,3-d]pyrimidin-4-yl)amino]cyclohexyl}-methanesulfonamide]	294	41.4	7.7
CN(c1ncnc2[nH]ccc12)[C@H]1CC[C@H](CS(=O)(=O)N[C@H]2C[C@@H]2c2ccccc2)CC1 [Example 32, 1-{trans-4-[methyl(7H-pyrrolo[2,3-d]pyrimidin-4-yl)amino]cyclohexyl}-N-[(1S,2R)-2-phenylcyclopropyl]-methanesulfonamide]	144	23.6	4.34
Cc1ccc(CCNS(=O)(=O)C[C@H]2CC[C@H](N(C)c3ncnc4[nH]ccc34)CC2)c(C)c1 [Example 4, N-[2-(2,4-dimethylphenyl)-ethyl]-1-{trans-4-[methyl-(7H-pyrrolo[2,3-d]pyrimidin-4-yl)amino]cyclohexyl}-methanesulfonamide]	139	9.17	3.01
CN(c1ncnc2[nH]ccc12)[C@H]1CC[C@H](CS(=O)(=O)NCC(F)c2ccc(F)cc2)CC1 (stereo partly drawn) [Example 11, N-[2-fluoro-2-(4-fluoro-phenyl)ethyl]-1-{trans-4-[methyl(7H-pyrrolo[2,3-d]-pyrimidin-4-yl)amino]-cyclohexyl}-methanesulfonamide]	424	61.9	13.5
CN(c1ncnc2[nH]ccc12)[C@H]1CC[C@H](CS(=O)(=O)Nc2ccc3[nH]ncc3c2)CC1 [Example 26, N-1H-indazol-5-yl-1-{trans-4-[methyl(7H-pyrrolo[2,3-d]pyrimidin-4-yl)amino]-cyclohexyl}-methanesulfonamide]	175	39.4	19
CN(c1ncnc2[nH]ccc12)[C@H]1CC[C@H](CS(=O)(=O)NC2CC(NC(=O)OC(C)(C)C)C2)CC1 (stereo partly drawn) [Example 41, tert-butyl (3-{[({trans-4-[methyl(7H-pyrrolo[2,3-d]-pyrimidin-4-yl)amino]-cyclohexyl}methyl)sulfonyl]amino}cyclobutyl)-carbamate]	292	123	11.6
Cc1cnc(CNS(=O)(=O)C[C@H]2CC[C@H](N(C)c3ncnc4[nH]ccc34)CC2)cn1 [Example 45, N-[(5-methylpyrazin-2-yl)methyl]-1-{trans-4-[methyl(7H-pyrrolo[2,3-d]-pyrimidin-4-yl)amino]cyclohexyl}-methanesulfonamide]	490	49.7	15.3
